Where “and” joins values, the source holds several entries; their conditions need not be identical. Identical values can stand only once. Inconclusive results and toxic doses are left out. How the source made its calls: active means survival T/C of 150% or more; inactive means T/C below 125% in these data.
Test system: CD2F1 mice, intracerebral P388 leukemia, median survival T/C%
Assay: NCI In Vivo Anticancer Drug Screen. Data for tumor model P388 Leukemia (intracerebral) in CD2F1 (CDF1) mice
Conditions: endpoint: median survival time, higher = longer survival
Protocol: The antitumor activity of compounds was measured in mice bearing transplantable tumors. Survival or tumor size were measured and the results are expressed as the measurement made in the treated group (T) divided by the measurement made in the vehicle treated control group (C). The tumor model used in this assay is P388 Leukemia (intracerebral) in CD2F1 (CDF1) mice

[1] = dose: 12.5 mg/kg/injection, schedule: Q01DX009 (ip), vehicle: saline
[2] = dose: 25.0 mg/kg/injection, schedule: Q01DX009 (ip), vehicle: saline
[3] = dose: 50.0 mg/kg/injection, schedule: Q01DX009 (ip), vehicle: saline
[4] = dose: 100.0 mg/kg/injection, schedule: Q01DX009 (ip), vehicle: saline
[5] = dose: 200.0 mg/kg/injection, schedule: Q01DX009 (ip), vehicle: saline

Measured: T/C

O=C1c2ccccc2C(=O)c2c(NCCNCCO)ccc(NCCNCCO)c21
inactive: dose: 4.0 mg/kg/injection, schedule: Q01DX005 (ip), vehicle: saline with Tween-80 112 % of control | dose: 4.0 mg/kg/injection, schedule: Q01DX009 (ip), vehicle: saline with Tween-80 109 % of control | dose: 4.0 mg/kg/injection, schedule: Q01DX009 (ip), vehicle: saline 101 % of control and 105 % of control | dose: 8.0 mg/kg/injection, schedule: Q01DX005 (ip), vehicle: saline with Tween-80 104 % of control | dose: 8.0 mg/kg/injection, schedule: Q01DX009 (ip), vehicle: saline with Tween-80 118 % of control and 121 % of control | dose: 8.0 mg/kg/injection, schedule: Q01DX009 (ip), vehicle: saline 91 % of control and 111 % of control | dose: 16.0 mg/kg/injection, schedule: Q01DX005 (ip), vehicle: saline with Tween-80 114 % of control | dose: 16.0 mg/kg/injection, schedule: Q01DX009 (ip), vehicle: saline with Tween-80 119 % of control and 108 % of control | dose: 16.0 mg/kg/injection, schedule: Q01DX009 (ip), vehicle: saline 120 % of control and 112 % of control | dose: 32.0 mg/kg/injection, schedule: Q01DX005 (ip), vehicle: saline with Tween-80 96 % of control | dose: 32.0 mg/kg/injection, schedule: Q01DX009 (ip), vehicle: saline with Tween-80 87 % of control and 101 % of control | dose: 32.0 mg/kg/injection, schedule: Q01DX009 (ip), vehicle: saline 90 % of control | dose: 64.0 mg/kg/injection, schedule: Q01DX009 (ip), vehicle: saline with Tween-80 98 % of control

O=C1C=CN(C2OC(CO)C(O)C2O)C(=O)C1 (centres undefined)
inactive: [1] 112 % of control | [2] 106 % of control | [3] 104 % of control | [4] 106 % of control | [5] 94 % of control | dose: 400.0 mg/kg/injection, schedule: Q01DX009 (ip), vehicle: saline 94 % of control

O=C1C(=O)c2ccccc2C(O)=C1CC=C(Cl)Cl
inactive: dose: 10.0 mg/kg/injection, schedule: Q01DX005 (ip), vehicle: Klucel (hydroxypropylcellulose) (HPC) 102 % of control and 109 % of control | dose: 20.0 mg/kg/injection, schedule: Q01DX005 (ip), vehicle: Klucel (hydroxypropylcellulose) (HPC) 96 % of control and 98 % of control | dose: 40.0 mg/kg/injection, schedule: Q01DX005 (ip), vehicle: Klucel (hydroxypropylcellulose) (HPC) 104 % of control and 105 % of control | dose: 80.0 mg/kg/injection, schedule: Q01DX005 (ip), vehicle: Klucel (hydroxypropylcellulose) (HPC) 100 % of control

NC(=O)c1csc(C2OC(CO)C(O)C2O)n1 (centres undefined)
inactive: [1] 105 % of control | [2] 121 % of control | [3] 110 % of control | [4] 119 % of control | [5] 121 % of control | dose: 800.0 mg/kg/injection, schedule: Q01DX009 (ip), vehicle: saline 93 % of control

Cc1cc(NC(=O)NCc2ccc(N3C(N)=NC(N)=NC3(C)C)cc2)ccc1S(=O)(=O)F
inactive: dose: 12.5 mg/kg/injection, schedule: Q01DX009 (ip), vehicle: saline with Tween-80 105 % of control | dose: 25.0 mg/kg/injection, schedule: Q01DX009 (ip), vehicle: saline with Tween-80 105 % of control | dose: 25.0 mg/kg/injection, schedule: Q04DX003 (ip), vehicle: saline with Tween-80 111 % of control | dose: 25.0 mg/kg/injection, schedule: Q04DX003 (ip), vehicle: saline 105 % of control | dose: 50.0 mg/kg/injection, schedule: Q01DX009 (ip), vehicle: saline with Tween-80 97 % of control | dose: 50.0 mg/kg/injection, schedule: Q04DX003 (ip), vehicle: saline with Tween-80 101 % of control | dose: 50.0 mg/kg/injection, schedule: Q04DX003 (ip), vehicle: saline 100 % of control | dose: 100.0 mg/kg/injection, schedule: Q04DX003 (ip), vehicle: saline with Tween-80 90 % of control | dose: 100.0 mg/kg/injection, schedule: Q04DX003 (ip), vehicle: saline 111 % of control | dose: 200.0 mg/kg/injection, schedule: Q04DX003 (ip), vehicle: saline with Tween-80 116 % of control | dose: 200.0 mg/kg/injection, schedule: Q04DX003 (ip), vehicle: saline 111 % of control | dose: 400.0 mg/kg/injection, schedule: Q04DX003 (ip), vehicle: saline 105 % of control

NC(=S)N/N=C/c1ccc(O)cn1
inactive: dose: 12.0 mg/kg/injection, schedule: Q01DX005 (ip), vehicle: saline 99 % of control and 100 % of control | dose: 24.0 mg/kg/injection, schedule: Q01DX005 (ip), vehicle: saline 96 % of control and 97 % of control | dose: 48.0 mg/kg/injection, schedule: Q01DX005 (ip), vehicle: saline 101 % of control and 106 % of control | dose: 96.0 mg/kg/injection, schedule: Q01DX005 (ip), vehicle: saline 93 % of control and 103 % of control

COc1ccc(CC2C(=O)NC(C)C(=O)N(C)C3C(=O)N(C)C(Cc4ccc(O)c(c4)Oc4ccc(cc4)C3O)C(=O)NC(C)C(=O)NC(C)C(=O)N2C)cc1 (centres undefined)
inactive: dose: 0.12 mg/kg/injection, schedule: Q01DX009 (ip), vehicle: Klucel (hydroxypropylcellulose) (HPC) 91 % of control and 98 % of control | dose: 0.13 mg/kg/injection, schedule: Q01DX009 (ip), vehicle: saline 104 % of control and 108 % of control | dose: 0.25 mg/kg/injection, schedule: Q01DX009 (ip), vehicle: Klucel (hydroxypropylcellulose) (HPC) 100 % of control and 103 % of control and 109 % of control | dose: 0.25 mg/kg/injection, schedule: Q01DX009 (ip), vehicle: saline 101 % of control and 109 % of control | dose: 0.5 mg/kg/injection, schedule: Q01DX009 (ip), vehicle: Klucel (hydroxypropylcellulose) (HPC) 100 % of control and 101 % of control and 106 % of control | dose: 0.5 mg/kg/injection, schedule: Q01DX009 (ip), vehicle: saline 104 % of control and 111 % of control | dose: 1.0 mg/kg/injection, schedule: Q01DX009 (ip), vehicle: Klucel (hydroxypropylcellulose) (HPC) 95 % of control and 101 % of control and 106 % of control | dose: 1.0 mg/kg/injection, schedule: Q01DX009 (ip), vehicle: saline 97 % of control and 103 % of control | dose: 2.0 mg/kg/injection, schedule: Q01DX009 (ip), vehicle: Klucel (hydroxypropylcellulose) (HPC) 89 % of control | dose: 2.0 mg/kg/injection, schedule: Q01DX009 (ip), vehicle: saline 109 % of control and 111 % of control

COc1ccc2cc1Oc1ccc(cc1)C[C@H]1c3cc(c(OC)cc3CCN1C)Oc1c(OC)c(OC)cc3c1[C@H](C2)N(C)CC3
inactive: dose: 50.0 mg/kg/injection, schedule: Q01DX005 (ip), vehicle: Klucel (hydroxypropylcellulose) (HPC) 105 % of control and 106 % of control | dose: 100.0 mg/kg/injection, schedule: Q01DX005 (ip), vehicle: Klucel (hydroxypropylcellulose) (HPC) 102 % of control and 105 % of control | dose: 200.0 mg/kg/injection, schedule: Q01DX005 (ip), vehicle: Klucel (hydroxypropylcellulose) (HPC) 99 % of control and 108 % of control | dose: 400.0 mg/kg/injection, schedule: Q01DX005 (ip), vehicle: Klucel (hydroxypropylcellulose) (HPC) 97 % of control and 104 % of control

COc1cccc2c1C(=O)c1c(O)c3c(c(O)c1C2=O)C[C@@](O)(C(=O)CO)C[C@@H]3OC1CC(N)C(O)C(C)O1 (some centres undefined)
inactive: dose: 0.5 mg/kg/injection, schedule: Q01DX001 (ip), vehicle: saline 89 % of control | dose: 1.0 mg/kg/injection, schedule: Q01DX001 (ip), vehicle: saline 98 % of control | dose: 2.0 mg/kg/injection, schedule: Q01DX001 (ip), vehicle: saline 94 % of control | dose: 4.0 mg/kg/injection, schedule: Q01DX001 (ip), vehicle: saline 90 % of control | dose: 8.0 mg/kg/injection, schedule: Q01DX001 (ip), vehicle: saline 80 % of control | dose: 16.0 mg/kg/injection, schedule: Q01DX001 (ip), vehicle: saline 91 % of control

CSCS(=O)C[C@H](CO)NC(=O)/C=C/c1c(C)[nH]c(=O)[nH]c1=O (some centres undefined)
inactive: dose: 0.06 mg/kg/injection, schedule: Q01DX005 (ip), vehicle: Klucel (hydroxypropylcellulose) (HPC) 103 % of control and 104 % of control | dose: 0.12 mg/kg/injection, schedule: Q01DX005 (ip), vehicle: Klucel (hydroxypropylcellulose) (HPC) 101 % of control and 105 % of control | dose: 0.25 mg/kg/injection, schedule: Q01DX005 (ip), vehicle: Klucel (hydroxypropylcellulose) (HPC) 107 % of control and 110 % of control | dose: 0.5 mg/kg/injection, schedule: Q01DX005 (ip), vehicle: Klucel (hydroxypropylcellulose) (HPC) 106 % of control and 108 % of control
